Source: ChEMBL document CHEMBL4689842, “EUbOPEN Chemogenomics Library wave 1” (2021)

How the values were obtained:
Type in all cases: toxicity, cell-based
Fibroblast = experiment: Incucyte cell viability with human fibroblast; details: 10 µM, compound concentration 10 uM
HEK-293T = experiment: Incucyte cell viability with HEK293T; details: human, 10 µM, compound concentration 10 uM
U2OS = experiment: Incucyte cell viability with U2OS; details: human, 10 µM, compound concentration 10 uM
[1] = 0 h, replicate number 1, timepoint 0 hours
[2] = 6 h, replicate number 1, timepoint 6 hours
[3] = 12 h, replicate number 1, timepoint 12 hours
[4] = 18 h, replicate number 1, timepoint 18 hours
[5] = 24 h, replicate number 1, timepoint 24 hours
[6] = 0 h, replicate number 2, timepoint 0 hours
[7] = 12 h, replicate number 2, timepoint 12 hours
[8] = 18 h, replicate number 2, timepoint 18 hours
[9] = 24 h, replicate number 2, timepoint 24 hours
[10] = 6 h, replicate number 2, timepoint 6 hours
Note: filed as whole numbers so only -1 and 0 and 1 occur.

Row | SMILES | Growth Rate (Fibroblast; [1]) | Growth Rate (Fibroblast; [2]) | Growth Rate (Fibroblast; [3]) | Growth Rate (Fibroblast; [4]) | Growth Rate (Fibroblast; [5]) | Growth Rate (HEK-293T; [1]) | Growth Rate (HEK-293T; [6]) | Growth Rate (HEK-293T; [2]) | Growth Rate (HEK-293T; [3]) | Growth Rate (HEK-293T; [4]) | Growth Rate (HEK-293T; [5]) | Growth Rate (HEK-293T; [9]) | Growth Rate (U2OS; [10]) | Growth Rate (U2OS; [3]) | Growth Rate (U2OS; [4]) | Growth Rate (U2OS; [5]) | Growth Rate (Fibroblast; [10]) | Growth Rate (Fibroblast; [8]) | Growth Rate (U2OS; [1]) | Growth Rate (U2OS; [2]) | further results
1 | N#CC(Cc1ccc(O)cc1)c1ccc(O)cc1 (stereo not given) [DIARYLPROPIONITRILE] | 0 | 0 | 0 | 0 | 0 | 1 | 0 | 1 | 0 | 0 | 0 | 1 | 0 | 1 | 0 | 1 |  |  |  |  | Growth Rate (HEK-293T; [7]): 1; Growth Rate (HEK-293T; [8]): 1; Growth Rate (U2OS; [7]): 0; Growth Rate (U2OS; [9]): 0
2 | COc1ccc(Cn2ccc3ccc(C(=O)NO)cc32)cc1 | 0 |  |  | 1 | 1 | 0 | 1 |  |  |  |  |  |  | 1 | 1 | 0 | 1 | 0 | 0 | 0 | Growth Rate (Fibroblast; [7]): 1; Growth Rate (U2OS; [6]): 1; Growth Rate (U2OS; [7]): 0
3 | Cc1cc(F)c(C(=O)Nc2cccc(-c3nncn3C(C)C)n2)cc1-n1cnc(C2CC2)c1 [SELONSERTIB] | 0 |  | 1 | 1 | 1 |  | 1 | 0 | 0 | 0 | 0 |  |  | 0 | 0 | 1 |  |  | 0 | 0 | Growth Rate (U2OS; [9]): 0
4 | O=C(O)c1ccc(-c2coc3ncc(-c4ccccc4)cc23)cc1Cl |  | 1 | 0 | 0 | 0 | 0 | 1 | 0 | 0 | 0 | 0 |  | 0 | 1 | 1 | 1 | 0 |  |  | 1 | Growth Rate (Fibroblast; [6]): 0; Growth Rate (HEK-293T; [10]): 1; Growth Rate (U2OS; [6]): 0
5 | CN([C@@H]1CCc2c(CC(=O)O)c3ccccc3n2C1)S(=O)(=O)c1ccc(F)cc1 [MK-7246] | 0 | 0 | 0 | 0 | 0 | 0 |  | 0 | 0 | 0 | 0 | 1 | 0 | 1 | 1 | 0 |  | 1 | 0 |  | Growth Rate (Fibroblast; [7]): 1; Growth Rate (HEK-293T; [10]): 1; Growth Rate (HEK-293T; [8]): 1; Growth Rate (U2OS; [9]): 1
6 | CCC(=O)N1CCOc2c(cc(-c3ccc(OC)c(OC)c3)cc2OC[C@H]2CCCN(C)C2)C1 | 0 | 0 | 1 | 1 | 1 |  | 1 | 0 | 0 | 0 | 0 |  |  | 1 | 1 | 1 |  | 0 | 0 | 0 | Growth Rate (Fibroblast; [7]): 0; Growth Rate (Fibroblast; [9]): 0; Growth Rate (HEK-293T; [8]): 1
7 | COc1cc2c(cc1OCCCN1CCCC1)N=C(N)C21CCC1 | 0 |  |  | 1 | 1 | 0 |  |  |  |  |  |  |  | 1 | 1 | 1 |  |  | 0 | 1 | Growth Rate (Fibroblast; [7]): 0
8 | CC(=O)Nc1c(C(C)=O)c(=O)n(C)c2nc(-c3ccc(Cl)cc3Cl)c(-c3ccc(Cl)cc3)cc12 [NAPHTHYRIDINONE] | 0 | 1 | 0 | 0 | 0 | 0 |  | 0 | 0 | 0 | 0 |  | 1 | 0 | 0 | 0 | 0 |  |  |  | Growth Rate (HEK-293T; [10]): 1; Growth Rate (U2OS; [6]): 0; Growth Rate (U2OS; [8]): 1; Growth Rate (U2OS; [9]): 1
9 | CNC(=NCCSCc1csc(N=C(N)N)n1)NC#N [TIOTIDINE] | 0 | 1 | 0 | 0 | 0 | 1 | 0 | 0 | 1 | 0 | 0 |  | 0 | 1 | 0 | 1 | 0 |  | 0 |  | Growth Rate (HEK-293T; [7]): 0; Growth Rate (U2OS; [7]): 0; Growth Rate (U2OS; [8]): 1
10 | C[C@H](c1ccc(F)cc1)N(Cc1ccc(Cl)c(C(=O)O)c1)C(=O)c1cnc2ccccc2c1 [PF-05257137] | 0 |  |  |  | 1 | 1 | 0 | 0 | 0 | 0 | 1 | 0 |  | 1 | 1 | 1 | 0 | 1 | 0 |  | Growth Rate (Fibroblast; [7]): 1
11 | CC(C)(C)NCC(O)COc1cccc2[nH]c(=O)[nH]c12.Cl (stereo not given) | 0 |  | 1 | 1 | 1 | 1 | 0 | 0 | 0 | 1 | 1 | 0 | 0 | 1 | 1 | 1 | 0 |  | 0 |  | Growth Rate (Fibroblast; [7]): 0
12 | Cc1cc(Nc2nccc(C)n2)cc(-c2cnc([C@@]3(O)CC[C@H](C(=O)O)C(C)(C)C3)s2)c1 [MRL-SYKi] |  | 0 | 0 | 0 | 1 |  |  | 0 | 0 | 0 | 0 |  |  | 0 | 0 | 0 |  |  | 0 | 0 | Growth Rate (Fibroblast; [6]): 1; Growth Rate (Fibroblast; [9]): 0; Growth Rate (U2OS; [8]): 1
13 | Br.Br.N=C(N)SCCc1c[nH]cn1 | 0 | 0 | 0 | 1 | 1 | 1 | 0 | 1 | 1 | 1 | 1 | 0 |  | 1 | 0 | 0 |  | 0 | 0 | 0 | Growth Rate (Fibroblast; [9]): 0; Growth Rate (HEK-293T; [8]): 0; Growth Rate (U2OS; [7]): 0; Growth Rate (U2OS; [8]): 1
14 | NC(=O)c1ccc(NC(=O)NCc2cccc(C(=O)Nc3ccc4c(c3)CNCC4)c2)cc1 | 0 | 0 | 0 | 1 | 1 | 0 |  |  |  | 1 | 0 | 1 |  | 1 | 1 | 1 | 1 |  | 0 | 0 | 
15 | CC1=C(C#N)C(c2ccc3[nH]nc(C)c3c2)C(C#N)=C(C)N1 [BAY-474] | 1 | 0 | 1 | 1 | 1 | 0 |  |  |  |  |  | 1 |  | 0 | 0 | 0 |  |  | 0 | 0 | Growth Rate (U2OS; [8]): 1
16 | O=S(=O)(c1ccccc1)N(CC(F)(F)F)c1ccc(C(O)(C(F)(F)F)C(F)(F)F)cc1 [T091317] | 0 | 0 | 0 | 0 | 0 | 0 |  | 0 | 0 | 0 | 0 |  |  | 1 | 1 | 1 |  |  | 0 |  | Growth Rate (HEK-293T; [10]): 1
17 | COc1ccc2cc(OCC3(C(=O)O)CN(C(=O)c4ccc(F)cc4)C3)ccc2c1 [PF-04418948] | 0 | 0 | 0 | 0 | 0 | 0 |  | 1 | 1 | 1 | 1 |  | 0 | 1 | 1 | 1 | 1 | 1 | 0 |  | Growth Rate (Fibroblast; [9]): 1; Growth Rate (HEK-293T; [10]): 0; Growth Rate (HEK-293T; [8]): 0; Growth Rate (U2OS; [7]): 0; Growth Rate (U2OS; [8]): 0; Growth Rate (U2OS; [9]): 0
18 | O=C(/C=C/N1C[C@H]2C[C@@H]1CN2c1ccccn1)c1ccccc1O |  | 1 | 1 | 1 | 1 | 0 | 1 |  |  |  |  |  |  | 1 | 0 | 0 |  |  | 0 | 0 | Growth Rate (Fibroblast; [6]): 0; Growth Rate (U2OS; [7]): 0
19 | Cc1c(C(=O)NC2CCCCC2)sc2nc3ccc(N)cc3n12.Cl | 0 | 0 | 1 |  | 1 | 0 |  | 0 | 0 | 0 | 0 |  | 0 | 1 | 1 | 1 |  | 1 | 0 | 1 | 
